Test results: PubChem BioAssay AID1845202 (Molecular Pharmacology Branch, DTP, NCI, 2023)

Test system: DMS 114 tumor spheroids, viability % test/control
Assay: Anticancer human tumor DMS 114 cell line growth inhibition;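 further: spheroids exposed to compounds for 7 days before read-out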;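 on viability, T/C: luminescence used as a proxy for viable cells; 100% = DMSO vehicle control viability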
Settings: spheroids with HUVEC and MSC; for IC50: curve of first compound; for viability, T/C: stronger effect = lower value
From the text: Multicellular complex tumor spheroid response to DNA repair inhibitors in combination with DNA-damaging drugs
This study explores the anticancer activities of DNA-damaging drugs and inhibitors of DNA damage repair, both as single agents and in combinations. Complex tumor spheroids comprised of malignant cells, endothelial cells and mesenchymal stem cells served as an in vitro model for human solid tumors. This model system incorporates physiologically relevant features and patient-derived or established malignant cell lines with clinically relevant genetic alterations from many tumor types. Twenty-six patient-derived or established malignant cell lines were evaluated representing sarcoma, melanoma, small cell lung cancer (SCLC), non-small cell lung cancer (NSCLC), as well as bladder, ovarian and pancreatic cancers. The concentration ranges selected for each drug and investigational agent were based upon clinically achievable concentrations if the clinical Cmax of the agent was known.
Compounds. The drugs and compounds olaparib (NSC753686), talazoparib (NSC767125), berzosertib (NSC777718), elimusertib (NSC800525), nedisertib (NSC802822), VX-984 (NSC792969), AZD-1390 (NSC803789), temozolomide (NSC362856), topotecan (NSC609699), trabectedin (NSC813783), staurosporine (NSC755774), and gemcitabine (NSC613327) were obtained from the National Cancer Institute (NCI) Developmental Therapeutics Program Chemical Repository. The FDA-approved anticancer drug set is available from the Developmental Therapeutics Program at https://dtp.cancer.gov/organization/dscb/obtaining/available_plates.htm. […] The stock solutions were prepared in dimethyl sulfoxide (DMSO, Sigma-Aldrich, St. Louis, MO, cat. D2650) at 400-fold the tested concentration and stored at -70 degrees C. Prior to their use, the stock solutions were diluted in fresh medium and the final DMSO concentration in the assay was 0.25% (v/v). All drugs and investigational agents were tested over a range starting from a high concentration at or near the clinical Cmax and decreasing in half-log increments. If the clinical Cmax for an agent had not been determined, the highest concentration tested was 10 microM.
Cell Lines. The patient-derived cancer cell (PDC) lines: 156681-154-R-J1-PDC, 283228-195-R-J1-PDC, 287954-098-R-J1-PDC, 292921-168-R-J2-PDC, 349418-098-R-PDC, 425362-245-T-J1-PDC, 556581-035-R-J1-PDC, and BL0293-F563-PDC were received from the NCI Patient-Derived Models Repository (PDMR, https://pdmr.cancer.gov). The established cell lines HS-SY-2 (RRID:CVCL_8719), MPNST, and SYO-1 (RRID:CVCL_7146) were obtained from the Sloan Kettering Institute. The alveolar soft parts sarcoma cell line ASPS-1 (RRID:CVCL_S738) was established at the NCI and grown from internal seed stocks. The following established cell lines were purchased from the American Type Culture Collection (ATCC, Manassas, VA): G-401 (ATCC, cat. CRL-1441, RRID:CVCL_0270), SW982 (ATCC, cat. HTB-93, RRID:CVCL_1734), VA-ES-BJ (ATCC, cat. CRL-2138, RRID:CVCL_1785), NCI-H719 (ATCC, cat. CRL-5837, RRID:CVCL_1582), NCI-H196 (ATCC, cat. CRL-5823, RRID:CVCL_1509), NCI-H841 (ATCC, cat. CRL-5845, RRID:CVCL_1595), NCI-H1618 (ATCC, cat. CRL-5879, RRID:CVCL_1480), NCI-H1876 (ATCC, cat. CRL-5902, RRID:CVCL_1503), DMS 114 (ATCC, cat. CRL-2066; RRID:CVCL_1174), NCI-H211 (ATCC, cat. CRL-5824; RRID:CVCL_1529), and SW 1271 (ATCC, cat. CRL-2177, RRID:CVCL_1716). The small cell lung cancer cell line COR-L88 was purchased from Sigma-Aldrich (cat. 92031917-1VL, RRID:CVCL_1141). The non-small cell lung cancer cell lines NCI-H226 (RRID:CVCL_1544) and NCI-H322M (RRID:CVCL_1557) were established at the NCI and grown from internal seed stocks. Pooled donor human umbilical vein endothelial cells (HUVEC, Lonza, cat. CC-2519) and human mesenchymal stem cells (hMSC, Lonza, cat. PT-2501) were purchased from Lonza (Walkersville, MD).
Cell Culture. All cells were maintained in an incubator at 37 degrees C and 5% CO2 with 95% humidity. […]

## Cc1sc2c(c1C)C(c1ccc(Cl)cc1)=NC(CC(=O)Nc1ccc(O)cc1)c1nnc(C)n1-2 (stereo not given) + CC[C@@]1(O)C(=O)OCc2c1cc1n(c2=O)Cc2cc3c(CN(C)C)c(O)ccc3nc2-1
Second compound 0.003 µM
  IC50: 0.0893 µM
Second compound 0.00949 µM
  IC50: 0.0564 µM
Second compound 0.03 µM
  IC50: < 0.00949 µM
Second compound 0.0949 µM
  IC50: < 0.00949 µM
Second compound 0.3 µM
  IC50: < 0.00949 µM
Second compound 0.003 µM, first compound 0.00949 µM
  viability, T/C: 96.7%
Second compound 0.003 µM, first compound 0.03 µM
  viability, T/C: 97.2%
Second compound 0.003 µM, first compound 0.0949 µM
  viability, T/C: 45.5%
Second compound 0.003 µM, first compound 0.3 µM
  viability, T/C: 18.9%
Second compound 0.003 µM, first compound 0.949 µM
  viability, T/C: 7.67%
Second compound 0.003 µM, first compound 3 µM
  viability, T/C: 4.78%
Second compound 0.00949 µM, first compound 0.00949 µM
  viability, T/C: 85%
Second compound 0.00949 µM, first compound 0.03 µM
  viability, T/C: 67.4%
Second compound 0.00949 µM, first compound 0.0949 µM
  viability, T/C: 35.9%
Second compound 0.00949 µM, first compound 0.3 µM
  viability, T/C: 12.1%
Second compound 0.00949 µM, first compound 0.949 µM
  viability, T/C: 5.26%
Second compound 0.00949 µM, first compound 3 µM
  viability, T/C: 3.47%
Second compound 0.03 µM, first compound 0.00949 µM
  viability, T/C: 24.8%
Second compound 0.03 µM, first compound 0.03 µM
  viability, T/C: 19.4%
Second compound 0.03 µM, first compound 0.0949 µM
  viability, T/C: 13.1%
Second compound 0.03 µM, first compound 0.3 µM
  viability, T/C: 8.01%
Second compound 0.03 µM, first compound 0.949 µM
  viability, T/C: 3.14%
Second compound 0.03 µM, first compound 3 µM
  viability, T/C: 1.45%
Second compound 0.0949 µM, first compound 0.00949 µM
  viability, T/C: 11.7%
Second compound 0.0949 µM, first compound 0.03 µM
  viability, T/C: 9.99%
Second compound 0.0949 µM, first compound 0.0949 µM
  viability, T/C: 5.31%
Second compound 0.0949 µM, first compound 0.3 µM
  viability, T/C: 2.68%
Second compound 0.0949 µM, first compound 0.949 µM
  viability, T/C: 1.52%
Second compound 0.0949 µM, first compound 3 µM
  viability, T/C: 0.93%
Second compound 0.3 µM, first compound 0.00949 µM
  viability, T/C: 5.77%
Second compound 0.3 µM, first compound 0.03 µM
  viability, T/C: 4.7%
Second compound 0.3 µM, first compound 0.0949 µM
  viability, T/C: 3.42%
Second compound 0.3 µM, first compound 0.3 µM
  viability, T/C: 1.6%
Second compound 0.3 µM, first compound 0.949 µM
  viability, T/C: 0.9%
Second compound 0.3 µM, first compound 3 µM
  viability, T/C: 0.73%
